The source of these data is US12161694B2, “Methods and compositions for regulating innate lymphoid cell inflammatory responses” (The Broad Institute, Inc., priority 2017, dated 2024).

“Also recorded” adds a separate entry of the source. Where no end group is shown, it is not given here.

For the assay, the system named is Th2 cells. In words: T cell in vitro culture (Th2 differentiation), Il5/Il13 qPCR. It counts as cell-based, mouse. The following applies: Th2 cells cultured with or without NMU 1 μg/ml. On the procedure:
Quantitative real-time PCR. RNA was isolated using RNeasy Plus Mini Kit (Qiagen) and reverse transcribed to cDNA with iScript cDNA Synthesis Kit (Bio-Rad). Gene expression was analyzed by quantitative real-time PCR on a ViiA7 System (Thermo Fisher Scientific) using TaqMan Fast Advanced Master Mix (Thermo Fisher Scientific) with the following primer/probe sets: IL-5 (Mm00439646_m1), IL-13 (Mm00434204_m1), IL-17RB (Mm00444709_m1), Nmur1 (Mm04207994 m1), Nmur2 (Mm00600704_m1), and β-Actin (Applied Biosystems). Expression values were calculated relative to β-Actin detected in the same sample by duplex qPCR.
T cell in vitro culture. CD4^+ T cells were isolated as described previously^4 and sorted for naive T cells (CD4^+ CD62L^+ CD44^low) on a FACS Aria. Naive T cells were cultured in the presence of plate-bound anti-CD3 (1 μg/ml; Bio X Cell) and anti-CD28 (1 μg/ml; Bio X Cell) antibodies. […]
Quantitative real-time PCR. […] Gene expression was analyzed by quantitative real-time PCR on a ViiA7 System (Thermo Fisher Scientific) using TaqMan Fast Advanced Master Mix (Thermo Fisher Scientific) with the following primer/probe sets: Il5 (Mm00439646_m1), Il13 (Mm00434204_m1), Il17rb (Mm00444709_m1), Nmur1 (Mm04207994_m1), Nmur2 (Mm00600704_m1), Nmu (Mm00479868_m1) and Actb (Applied Biosystems). Expression values were calculated relative to Actb detected in the same sample by duplex qPCR. […]
(Real-time PCR tracks product formation cycle by cycle.)

With “Neuromedin U (FRVDEEFQSPFASQSRGYFLFRPRN-NH2; listed as Homo sapiens) [NMU, neuropeptide ligand of Nmur1 (US Biological)]”, the “Il5 and Il13 expression in Th2 cells” value is given as “not observed; also recorded: similar; also recorded: did not affect; also recorded: does not alter”.
